Laboratory results: patent publication US9085555B2, “Complement pathway modulators and uses thereof” (priority 2011, dated 2015)

biological target: Factor D (Homo sapiens (Human), UniProt P00746); experiment: biochemical; type: biochemical; conditions: read-out: IC50
Sequence (P00746 26-253): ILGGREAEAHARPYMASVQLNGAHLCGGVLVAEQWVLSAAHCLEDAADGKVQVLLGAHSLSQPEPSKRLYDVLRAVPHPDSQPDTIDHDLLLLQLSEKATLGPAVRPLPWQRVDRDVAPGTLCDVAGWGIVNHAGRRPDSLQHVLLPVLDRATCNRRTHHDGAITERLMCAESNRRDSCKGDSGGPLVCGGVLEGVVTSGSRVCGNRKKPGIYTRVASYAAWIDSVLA

Compound | IC50 [nM]
Cc1ccc2c(NC(=O)N3CCC[C@H]3C(=O)Nc3cccc(OC(F)(F)F)c3)cn(C(N)=O)c2c1 [Example 269] | 1600
CNC(=O)n1cc(NC(=O)N2[C@@H]3C[C@@H]3C[C@H]2C(=O)N[C@H](COC)c2cccc(Cl)c2F)c2ccccc21 [Example 270, (1R,3S,5R)-2-Aza-bicyclo[3.1.0]hexane-2,3-dicarboxylic acid 3-{[(S)-1-(3-chloro-2-fluoro-phenyl)-2-methoxy-ethyl]-amide} 2-[(1-methylcarbamoyl-1H-indol-3-yl)-amide]] | 54
CC(=O)n1cc(NC(=O)N2CCC[C@H]2C(=O)Nc2cccc(OC(F)(F)F)c2)c2ccccc21 [Example 271, (S)-Pyrrolidine-1,2-dicarboxylic acid 1-[(1-acetyl-1H-indol-3-yl)-amide] 2-[(3-trifluoromethoxy-phenyl)-amide]] | 629
NC(=O)n1cc(NC(=O)N2[C@@H](c3ccccc3)CC[C@H]2C(=O)Nc2cccc(OC(F)(F)F)c2)c2ccccc21 [Example 273, (2S,5R)-5-Phenyl-pyrrolidine-1,2-dicarboxylic acid 1-[(1-carbamoyl-1H-indol-3-yl)-amide] 2-[(3-trifluoromethoxy-phenyl)-amide]] | 2260
NC(=O)n1cc(NC(=O)N2C[C@H](F)C[C@H]2C(=O)Nc2cccc(OC(F)(F)F)c2F)c2ccccc21 [Example 274, (2S,4R)-4-Fluoro-pyrrolidine-1,2-dicarboxylic acid 1-[(1-carbamoyl-1H-indol-3-yl)-amide] 2-[(2-fluoro-3-trifluoromethoxy-phenyl)-amide]] | 14
CC(=O)n1cc(NC(=O)N2[C@H](C(=O)NCc3cccc(Cl)c3F)C[C@@]3(CO)C[C@@H]23)c2ccccc21 [Example 275, (1R,3S,5S)-5-Hydroxymethyl-2-aza-bicyclo[3.1.0]hexane-2,3-dicarboxylic acid 2-[(1-acetyl-1H-indol-3-yl)-amide] 3-(3-chloro-2-fluoro-benzylamide)] | 30
COC(=O)COc1ccc2c(NC(=O)N3[C@@H]4C[C@@H]4C[C@H]3C(=O)Nc3cccc(OC(F)(F)F)c3)cn(C(N)=O)c2c1 [Example 276, (1-Carbamoyl-3-{[(1R,3S,5R)-3-(3-trifluoromethoxy-phenylcarbamoyl)-2-aza-bicyclo[3.1.0]hexane-2-carbonyl]-amino}-1H-indol-6-yloxy)-acetic acid methyl ester] | 1310
CN(C)C(=O)c1cc(Cl)c(F)c(CNC(=O)[C@@H]2C[C@@H](F)CN2C(=O)Nc2cn(C(N)=O)c3ccccc23)c1 [Example 277, (2S,4R)-4-Fluoro-pyrrolidine-1,2-dicarboxylic acid 1-[(1-carbamoyl-1H-indol-3-yl)-amide] 2-(3-chloro-5-dimethylcarbamoyl-2-fluoro-benzylamide)] | 627
Cn1nc(C(C)(C)C)cc1NC(=O)[C@@H]1CCCN1C(=O)Nc1cn(C(N)=O)c2ccccc12 [Example 279, (S)-Pyrrolidine-1,2-dicarboxylic acid 2-[(5-tert-butyl-2-methyl-2H-pyrazol-3-yl)-amide] 1-[(1-carbamoyl-1H-indol-3-yl)-amide]] | 2900
C=CCOc1ccc2c(NC(=O)N3C[C@H](F)C[C@H]3C(=O)NCc3cccc(Cl)c3F)cn(C(N)=O)c2c1 [Example 280, (2S,4R)-4-Fluoro-pyrrolidine-1,2-dicarboxylic acid 1-[(6-allyloxy-1-carbamoyl-1H-indol-3-yl)-amide] 2-(3-chloro-2-fluoro-benzylamide)] | 250
CC(=O)n1cc(NC(=O)N2[C@@H]3C[C@@H]3C[C@H]2C(=O)N[C@H](CN(C)C)c2cccc(Cl)c2F)c2ccccc21 [Example 281, (1R,3S,5R)-2-Aza-bicyclo[3.1.0]hexane-2,3-dicarboxylic acid 2-[(1-acetyl-1H-indol-3-yl)-amide] 3-{[(S)-1-(3-chloro-2-fluoro-phenyl)-2-dimethylamino-ethyl]-amide}] | 18
CNC(=O)n1cc(NC(=O)N2CCC[C@H]2C(=O)Nc2cccc(OC(F)(F)F)c2)c2ccccc21 [Example 282, (S)-Pyrrolidine-1,2-dicarboxylic acid 1-[(1-methylcarbamoyl-1H-indol-3-yl)-amide] 2-[(3-trifluoromethoxy-phenyl)-amide]] | 3680
NC(=O)n1cc(NC(=O)N2CC[C@@H](O)[C@H]2C(=O)NCc2cnc(Cl)s2)c2ccccc21 [Example 283, (2S,3R)-3-Hydroxy-pyrrolidine-1,2-dicarboxylic acid 1-[(1-carbamoyl-1H-indol-3-yl)-amide] 2-[(2-chloro-thiazol-5-ylmethyl)-amide]] | 900
CNC(=O)n1cc(NC(=O)N2[C@H](C(=O)NCc3cccc(Cl)c3F)C[C@@]3(COC)C[C@@H]23)c2ccccc21 [Example 284, (1R,3S,5S)-5-Methoxymethyl-2-aza-bicyclo[3.1.0]hexane-2,3-dicarboxylic acid 3-(3-chloro-2-fluoro-benzylamide) 2-[(1-methylcarbamoyl-1H-indol-3-yl)-amide]] | 286
CC(C)c1cccc(NC(=O)[C@@H]2C[C@H]3C[C@H]3N2C(=O)Nc2cn(C(N)=O)c3ccccc23)c1 [Example 285, (1R,3S,5R)-2-Aza-bicyclo[3.1.0]hexane-2,3-dicarboxylic acid 2-[(1-carbamoyl-1H-indol-3-yl)-amide] 3-[(3-isopropyl-phenyl)-amide]] | 55
NC(=O)n1cc(NC(=O)N2CCC[C@H]2C(=O)Nc2cccc(OC(F)(F)F)c2)c2ccc(Br)cc21 [Example 286, (S)-Pyrrolidine-1,2-dicarboxylic acid 1-[(6-bromo-1-carbamoyl-1H-indol-3-yl)-amide] 2-[(3-trifluoromethoxy-phenyl)-amide]] | 2650
CNC(=O)n1cc(NC(=O)N2[C@@H]3C[C@@H]3C[C@H]2C(=O)N[C@H](CO)c2cccc(Cl)c2F)c2ccccc21 [Example 287, (1R,3S,5R)-2-Azabicyclo[3.1.0]hexane-2,3-dicarboxylic acid 3-{[(S)-1-(3-chloro-2-fluoro-phenyl)-2-hydroxy-ethyl]-amide}2-[(1-methylcarbamoyl-1H-indol-3-yl)-amide]] | 112
CCc1ccc2c(NC(=O)N3CCC[C@H]3C(=O)Nc3cccc(OC(F)(F)F)c3)cn(C(N)=O)c2c1 [Example 288, (S)-Pyrrolidine-1,2-dicarboxylic acid 1-[(1-carbamoyl-6-ethyl-1H-indol-3-yl)-amide] 2-[(3-trifluoromethoxy-phenyl)-amide]] | 1100
CNC(=O)n1cc(NC(=O)N2[C@@H]3C[C@@H]3C[C@H]2C(=O)N[C@H](CN(C)C)c2cccc(Cl)c2F)c2ccccc21 [Example 289, (1R,3S,5R)-2-Aza-bicyclo[3.1.0]hexane-2,3-dicarboxylic acid 3-{[(S)-1-(3-chloro-2-fluoro-phenyl)-2-dimethylamino-ethyl]-amide} 2-[(1-methylcarbamoyl-1H-indol-3-yl)-amide]] | 555
NC(=O)n1cc(NC(=O)N2CCC[C@H]2C(=O)Nc2cccc(OC(F)(F)F)c2)c2ccc(Cl)cc21 [Example 291, (S)-Pyrrolidine-1,2-dicarboxylic acid 1-[(1-carbamoyl-6-chloro-1H-indol-3-yl)-amide] 2-[(3-trifluoromethoxy-phenyl)-amide]] | 3250
COc1ccc2c(c1)c(NC(=O)N1C[C@H](F)C[C@H]1C(=O)NCc1cccc(Cl)c1F)cn2C(N)=O [Example 292, (2S,4R)-4-Fluoro-pyrrolidine-1,2-dicarboxylic acid 1-[(1-carbamoyl-5-methoxy-1H-indol-3-yl)-amide] 2-(3-chloro-2-fluoro-benzylamide)] | 3
NC(=O)n1cc(NC(=O)N2CCS[C@H]2C(=O)NCc2ccc(Cl)s2)c2ccccc21 [Example 293, (S)-Thiazolidine-2,3-dicarboxylic acid 3-[(1-carbamoyl-1H-indol-3-yl)-amide] 2-[(5-chloro-thiophen-2-ylmethyl)-amide]] | 35
NC(=O)n1cc(NC(=O)N2C3CC3C[C@H]2C(=O)NCc2cccc(Cl)c2F)c2cc(F)ccc21 (stereo partly drawn) [Example 294, (1R,3S,5R)-2-Aza-bicyclo[3.1.0]hexane-2,3-dicarboxylic acid 2-[(1-carbamoyl-5-fluoro-1H-indol-3-yl)-amide] 3-(3-chloro-2-fluoro-benzylamide)] | 5
NC(=O)n1cc(NC(=O)N2C3CC3C[C@H]2C(=O)NCc2cnc(Cl)s2)c2ccccc21 (stereo partly drawn) [Example 295, (1R,3S,5R)-2-Aza-bicyclo[3.1.0]hexane-2,3-dicarboxylic acid 2-[(1-carbamoyl-1H-indol-3-yl)-amide] 3-[(2-chloro-thiazol-5-ylmethyl)-amide]] | 150
NC(=O)n1cc(NC(=O)N2C[C@H](F)C[C@H]2C(=O)N[C@@H](c2cccc(Cl)c2)C(F)(F)F)c2ccccc21 [Example 296, (2S,4R)-4-Fluoro-pyrrolidine-1,2-dicarboxylic acid 1-[(1-carbamoyl-1H-indol-3-yl)-amide] 2-{[(S)-1-(3-chloro-phenyl)-2,2,2-trifluoro-ethyl]-amide}] | 218
NC(=O)n1cc(NC(=O)N2C3CC3C[C@H]2C(=O)Nc2cccc(OC(F)(F)F)c2)c2ccc(F)cc21 (stereo partly drawn) [Example 297, (1R,3S,5R)-2-Aza-bicyclo[3.1.0]hexane-2,3-dicarboxylic acid 2-[(1-carbamoyl-6-fluoro-1H-indol-3-yl)-amide] 3-[(3-trifluoromethoxy-phenyl)-amide]] | 350
COc1ccc2c(c1)c(NC(=O)N1C[C@H](F)C[C@H]1C(=O)Nc1cccc(OC(F)(F)F)c1F)cn2C(N)=O [Example 298, (2S,4R)-4-Fluoro-pyrrolidine-1,2-dicarboxylic acid 1-[(1-carbamoyl-5-methoxy-1H-indol-3-yl)-amide] 2-[(2-fluoro-3-trifluoromethoxy-phenyl)-amide]] | 7
NC(=O)n1cc(NC(=O)N2CC[C@H]2C(=O)Nc2cccc(OC(F)(F)F)c2)c2ccccc21 [Example 299, (S)-Azetidine-1,2-dicarboxylic acid 1-[(1-carbamoyl-1H-indol-3-yl)-amide] 2-[(3-trifluoromethoxy-phenyl)-amide]] | 1800
COc1ccc2c(c1)c(NC(=O)N1C3CC3C[C@H]1C(=O)NCc1cccc(Cl)c1F)cn2C(N)=O (stereo partly drawn) [Example 300, (1R,3S,5R)-2-Aza-bicyclo[3.1.0]hexane-2,3-dicarboxylic acid 2-[(1-carbamoyl-5-methoxy-1H-indol-3-yl)-amide] 3-(3-chloro-2-fluoro-benzylamide)] | 4
